Reference: patent US20130079526A1, “Synthesis of Chirally Purified Substituted Benzothiazole Diamines” (priority 2010, published 2013)

What was measured:
human subjects = details: cited from earlier work
rodents [1] = tested on: rodents
monkeys = details: single oral dose; cited from earlier work
humans = details: dose as low as; cited from earlier work
dogs = details: single oral dose, and above; cited from earlier work
rodents [2] = details: single oral dose, and above; cited from earlier work

CCCN[C@H]1CCc2nc(N)sc2C1 [pramipexole, (6S)-4,5,6,7-tetrahydro-N6-propyl-2,6-benzothiazole-diamine]
initial single dose not tolerated (human subjects): greater than 0.20 mg | equivalent human dose of the rodent lethal dose (rodents [1]; human equivalent): 7 to 12 mg/kg | equivalent human dose of the rodent lethal dose for a 70 kg individual (rodents [1]; rodents, in vivo): 500 to 850 mg | dose at which major excitation was displayed (monkeys): 3.5 mg/kg | dose shown to cause somnolence (humans): 1.5 mg | dose at which vomiting occurred (dogs): ≥ 0.7 µg/kg | dose at which death occurred (rodents [2]): 70 to 105 mg/kg
